Here are results for five compounds from patent US12172941B2, “Organic compound and organic light-emitting device” (CANON KABUSHIKI KAISHA, priority 2020, dated 2024).

Holding throughout (format): physicochemical
Data set [1] in a line: Difference between decomposition temperature (TG/DTA) and sublimation temperature. The following applies: decomposition: 5% weight loss in TG/DTA; sublimation: vacuum 1×10^−1 Pa, Ar flow. From the text: The decomposition temperature is a temperature at which the weight loss reaches 5% in TG/DTA measurement. […] In the toluene solubility test performed in a nitrogen atmosphere under reflux by heating while stirring, dissolution was visually inspected and was expressed as a relative value with respect to the amount of toluene (1.0) used to completely dissolve the exemplary compound A1.

A short description of data set [2]: Photoluminescence emission spectrum of toluene solution (F-4500). Conditions: toluene solution 1×10^−5 mol/l, room temperature, excitation 350 nm. How it is done: The measurement was performed by measuring photoluminescence with F-4500 manufactured by Hitachi, Ltd. at room temperature and at an excitation wavelength of 350 nm.
Data set [3] can be described thus: Absolute PL quantum yield in solution (C9920-02). The following applies: room temperature, relative value.

In data set [1], `c1ccc(-c2c3c(c(-c4ccccc4)c4c2ccc2c5cc6c(cc5ccc24)-c2cccc4cccc-6c24)-c2cccc4cccc-3c24)cc1` [Comparative compound (2)] showed a Decomposition temperature-sublimation temperature of 70 °C.

In data set [1], `c1ccc(-c2c3c(c(-c4ccccc4)c4c2ccc2c5cc6c(cc5ccc24)-c2cccc4cccc-6c24)-c2cc4ccccc4c4cccc-3c24)cc1` [Exemplary compound A1] displayed a Decomposition temperature-sublimation temperature of 90 °C.

Regarding `c1ccc(-c2cc3c4cc5c(cc4c(-c4ccccc4)cc3c3cc4c(cc23)-c2cccc3cccc-4c23)-c2cccc3cccc-5c23)cc1` [Comparative compound (1)], in data set [2], the Emission wavelength max is on record as 449 and the λmax worked out at 449. In data set [3] (exemplary compound A17 = 1.00), the Quantum yield is recorded as 0.95. Besides, the Quantum yield in data set [3] (exemplary compound D2 = 1.00) came out at 0.95.

`c1ccc(-c2cc3c4cc5c(cc4c(-c4ccccc4)cc3c3cc4c(cc23)-c2cccc3cccc-4c23)-c2cccc3c2c-5cc2ccccc23)cc1` [Exemplary compound A17] showed an Emission wavelength max in data set [2] of 449. Besides, in data set [3] (exemplary compound A17 = 1.00), the Quantum yield came to 1.00.

Turning to `Cc1ccc(-c2cc3c4cc5c(cc4c(-c4ccc(C)cc4)cc3c3cc4c(cc23)-c2cc3ccccc3c3cccc-4c23)-c2cc3ccccc3c3cccc-5c23)cc1` [Exemplary compound D2], the λmax in data set [2] amounted to 453. The Quantum yield in data set [3] (exemplary compound D2 = 1.00) is listed as 1.00.
